Experiment: gradient 5% acetonitrile 3 min, to 50% in 2 min, to 85% in 15 min, held 3 min, 100 µL/min
Conditions: column: Zorbax Extend-C18 2.1 x 50 mm; eluents: water / acetonitrile, 0.1% formic acid
In short: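 Pure standards were analyzed in mixtures of ~100 molecules using HPLC coupled to a quadrupole time-of-flight mass spectrometer, in both positive and negative ionization mode. Separation used a Zorbax Extend-C18 column (2.1 × 50 mm, 1.8 μm) at 100 μL/min, with water and acetonitrile each containing 0.1% formic acid. Dead and dwell volumes were 40 μL and 900 μL, and data were collected over 3 months. Retention time was read from computationally picked adduct peaks, each inspected manually.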

RP-LC retention time [s]	Compound
676	Cc1ccc(Nc2nc(C)cc(N3CCN(C(=O)Nc4ccc5c(c4)OCO5)CC3)n2)cc1
1220	CC1=NS(=O)(=O)N(Cc2ccccc2)C=C1C(=O)OCc1nc(-c2ccc(Cl)cc2)no1
1060	Cc1sc(C)c(S(=O)(=O)NCc2ccco2)c1-c1cc(C(F)(F)F)on1
1040	Cn1cc(-c2nc(C(=O)Nc3ccccc3F)cs2)c2cccnc21
936	COC(=O)c1nnn(-c2cccc(Cl)c2C)c1C(=O)OC
774	Cc1ccc(CNC(=O)CN2C(=O)NC3(CCCCC3)C2=O)cc1
843	COc1cccc(CN2N=C(C(=O)N3CCCC3)S(=O)(=O)c3ccccc32)c1
959	CCCn1cc(C(=O)NCCOC)c(S(=O)(=O)N2CCN(c3ccccc3OCC)CC2)n1
1070	CCCCNC(=O)Cc1c(C)nn(-c2nc(-c3ccc(F)cc3)cs2)c1C
847	O=C(C1=CN(c2ccc3c(c2)OCO3)c2cc(Cl)ccc2S1(=O)=O)N1CCCC1
723	Cc1ccc(CNC(=O)C2CCc3nc(N4CCOCC4)ncc3C2)cc1 (configuration not stated)
606	CN1CCc2cccc3c2C1Cc1ccc(O)c(O)c1-3 (configuration not stated)
983	CCc1ccc(CNC(=O)C2CCCN(c3nn4c(=O)c5c(nc4s3)CCCC5)C2)cc1 (configuration not stated)
779	O=c1ccc(-c2cccs2)nn1CCNS(=O)(=O)c1ccccc1C(F)(F)F
629	O=C(CSCc1ccccc1)Nc1cc(=O)[nH]c(=O)[nH]1
631	CCc1cc(=O)n(CC(=O)Nc2ccc(C)cc2C)c(N)n1
556	CCOC(=O)CNC(=O)N1CCN(c2nc3ccccc3n3cccc23)CC1
627	COc1ccc(-c2nc3cccnc3n2C2CCN(C(=O)NCc3ccco3)C2)cc1 (configuration not stated)
546	Cc1ccc(CN2CCC(n3c(C)cnc3-c3cccnc3)C2)s1 (configuration not stated)
661	CN(C)c1nc(N)c(C(=O)N=C(N)N)nc1Cl
1140	CCc1ccc(-c2noc(Cn3c(=O)n(-c4ccccc4C)c(=O)c4sccc43)n2)cc1
677	CCc1cc(-c2csc(S(=O)(=O)NCCCN3CCC(C)CC3)c2)on1
666	Cc1ccc2c(c1)C(O)(CC(=O)c1ccccc1)C(=O)N2 (configuration not stated)

RP-LC retention time [s]	Compound
811	COc1ccc(CNC(=O)c2cn3cc(Cl)ccc3n2)cc1
709	CCN(C(=O)Cn1nc2n(c1=O)CCCCC2)c1ccccc1
916	Cc1ccc(S(=O)(=O)N2C(=O)CCC2C(=O)NC2CCCCC2)cc1C (configuration not stated)
593	COc1ccc(CCC(=O)NCCCOc2cccc3cccnc23)cc1
633	Cc1nn(-c2ccc(N3CCOCC3)nn2)c(C)c1CCC(=O)NCc1ccco1
865	COC(=O)c1cc(S(=O)(=O)N2CCCC2C(=O)NCc2ccc(Cl)cc2)cn1C (configuration not stated)
1080	CCSc1nc2ccc(NS(=O)(=O)c3ccc(C)c(C)c3)cc2s1
824	CC(Oc1ccccc1)C(=O)NCc1nnnn1-c1ccc(Cl)cc1 (configuration not stated)
886	Cc1cccc(CNS(=O)(=O)c2ccc3c(c2)C(=O)N(C)c2ncccc2O3)c1
666	c1ccc(-c2nnc(-c3cccnc3)o2)cc1
951	CS(=O)(=O)N1CCCc2cc(C(=O)Nc3ccc(Br)cc3)ccc21
665	CCc1noc(NC(C)=O)c1-c1ccc(C)c(S(=O)(=O)N2CCN(c3ccccn3)CC2)c1
703	O=C(NCC1CCOCC1)Nc1cc(F)cc(F)c1
748	CN(c1nccn2c(=O)n(CC(=O)Nc3ccccc3F)nc12)C1CCCCC1
623	Cn1c(CNC(=O)C2CCC2)nc2c1CN(C(=O)Cc1ccc(Cl)cc1)CC2
580	Cc1cc(N2CCN(C)CC2)nc2ccc(NC(=O)Nc3ccc4c(c3)OCCO4)cc12
863	CCC(NC(=O)C1CCN(c2nnc(-c3ccc(OC)cc3)o2)CC1)c1cccs1 (configuration not stated)
1150	CCc1nc(-c2csc(S(=O)(=O)N3CCCC(C(=O)NC4CCCCCCC4)C3)c2)no1 (configuration not stated)
621	O=C(Nc1ccc2c(c1)OCCO2)c1cc2c(s1)CN(C1CCCC1)C2
775	COc1cccc(CNC(=O)N2c3ccccc3CC2c2nc(C3CC3)no2)c1 (configuration not stated)
705	Cc1cc(NC(=O)NCCc2c(C)nn(C)c2C)ccc1Br
707	COc1ccc(CN(CCN(C)C)c2ncccn2)cc1
1180	c1ccc2c(Oc3nc(Nc4ccc(N5CCOCC5)cc4)c4ncn(C5CCCCC5)c4n3)cccc2c1

RP-LC retention time [s]	Compound
808	CCN1C(=O)C(CC(=O)NCC2CCCCC2)Sc2ncccc21 (configuration not stated)
1060	Cc1ccc(N2CC(c3noc(-c4cc(F)cc(F)c4)n3)CC2=O)cc1 (configuration not stated)
538	Cn1cc(OCc2ccccc2)c(=O)cc1C(=O)N1CCN(c2ccccn2)CC1
905	Cc1ccc(-c2nc(CCN(C)C(=O)NCc3ccccc3)no2)cc1
1250	CN(C)c1cccc(-c2nc(-c3ccc(S(=O)(=O)N4CCCC4)cc3)no2)c1
694	COc1ncccc1CNC(=O)c1cccs1
749	COCCNC(=O)N1c2ccccc2NC2=C(C(=O)CC(C)(C)C2)C1c1ccc(F)cc1 (configuration not stated)
695	CCOC(=O)NCCS(=O)(=O)N1CCN(c2ccc(OC)cc2)CC1
760	COc1cccc(-n2cc(C(=O)O)c3ccccc3c2=O)c1
631	O=C(NCCN1CCOCC1)c1ccc2nc(Cc3ccccc3)oc2c1
697	CC(=O)N1c2ccc(S(=O)(=O)N3CCOCC3)cc2CC1C(=O)N1CCCCC1 (configuration not stated)
821	CCN(CC)c1ncc2c(n1)CCC(C(=O)NCc1ccc(C(C)C)cc1)C2 (configuration not stated)
923	Cn1c(C(=O)Nc2ccc(F)cc2F)cc2c(=O)oc3ccccc3c21
583	Cc1cccc(S(=O)Cc2ccc(C(=O)NCCN3CCOCC3)o2)c1 (configuration not stated)
634	Nc1ccc(C(=O)c2cccs2)cn1
594	COc1cccc(CNC(=O)c2cc(NC(C)=O)cc3nc(C)ccc23)c1OC
905	CSc1nc2ccc3nc(NC(=O)C4=COCCO4)sc3c2s1
847	Cc1cccc(OCC(=O)N2CCc3cc(-c4csc(C)n4)ccc32)c1
792	CCCOc1ccc(CNC(=O)C2CCc3nc(N4CCOCC4)ncc3C2)cc1 (configuration not stated)
797	COC(=O)c1cccc(C(=O)N2CCc3ccccc32)n1
532	Cc1nnc2n1CCC(NC(=O)c1ccoc1)CC2 (configuration not stated)
909	Cc1cc2nn(CC(=O)NC3CCCCC3)c(=O)n2c(Nc2ccc(F)cc2)n1
551	CC(C)NC(=O)N1CCCC(OCc2nc(-c3ccccc3)no2)C1 (configuration not stated)

RP-LC retention time [s]	Compound
854	CCN(CC)C(=O)Cn1c(=O)c2cnc(-c3ccccc3)nc2n(C)c1=O
1120	Cc1ccc(-n2ccc(=O)c(-c3nc(-c4ccc(F)c(Br)c4)no3)n2)cc1C
745	CN(Cc1ccccc1)c1ccc(-c2noc(CN3CCC4(CC3)OCCO4)n2)cn1
822	CC(C)(Oc1ccc(Cl)cc1)C(=O)Nc1ccc2cn[nH]c2c1
941	COc1ccc(C2CC(=O)N(c3ccc(C)cc3C)C(=O)C2)cc1
919	Cc1ccc(NC(=O)c2cnc3c(c2)c(=O)n(C)c(=O)n3-c2ccccc2)cc1
585	Cc1nc2ccn(Cc3ccco3)c(=O)c2cc1C(=O)NCCN1CCOCC1
647	CN1C(=O)c2cccn2CC1CNC(=O)Nc1ccccc1 (configuration not stated)
1130	CCOC(=O)c1nc(Nc2cc(C)c(Cl)cc2OC)c2ccccc2n1
976	Cc1cc(C)cc(NC(=O)C2CCN(S(C)(=O)=O)c3ccccc3O2)c1 (configuration not stated)
987	COc1ccc(-c2nc3cccc(C)n3c2Nc2ccc3c(c2)OCCO3)cc1
718	CCn1c(C2CCN(C(=O)Nc3cccc(Cl)c3)CC2)cc(=O)n2nccc12
580	COc1cccc2c(=O)c(NC(=O)N3CCCC(C(N)=O)C3)c[nH]c12 (configuration not stated)
909	CC(C)c1ccc(NC(=O)CN2C(=O)C3CCCCN3c3ccc(C(=O)N4CCOCC4)cc32)cc1 (configuration not stated)
856	O=C(CC1CCCCC1)N1CCCC(COc2ccc(C(=O)N3CCOCC3)cc2)C1 (configuration not stated)
819	CCn1ccc2c(cc(C(=O)Nc3ccc(Cl)cc3)n2C)c1=O
638	CCCNC(=O)C1CCN(c2ccc(SCC(=O)Nc3ccc(C(=O)OC)cc3)nn2)CC1
1310	O=S(=O)(c1ccc2c(c1)CCC2)N1CCCC1c1nc(-c2cccc(Cl)c2)no1 (configuration not stated)
588	CN(C)C(=O)c1ccc2c(c1)nc(CN1CCN(C(=O)c3cccs3)CC1)n2C
717	CC1(C)[C@@H]2CC[C@@]1(C(=O)O)C(=O)C2
712	Cc1cc(C)c(NC(=O)Cn2cc(-c3nc(C)no3)ccc2=O)c(C)c1
893	O=C1C2N=NN(Cc3nc(-c4ccc5c(c4)OCO5)no3)C2C(=O)N1c1ccccc1 (configuration not stated)
657	OCCNCc1ccc(-c2cc(Cl)ccc2Cl)o1

— the METLIN SMRT retention time set (Domingo-Almenara et al. 2019)
